The values below come from BindingDB's records for doi:10.1126/science.2551039 (UniversitÄT Heidelberg, 1989).

The structures appear in SMILES notation. Values joined by “and” are separate entries in the source; they are usually repeats but may differ in a detail not shown here. Identical values can stand only once.

Experiment [1] deals with T1, Gamma-aminobutyric acid receptor subunit alpha-2 (Homo sapiens, UniProt P47869).
T1 sequence (P47869 whole entry): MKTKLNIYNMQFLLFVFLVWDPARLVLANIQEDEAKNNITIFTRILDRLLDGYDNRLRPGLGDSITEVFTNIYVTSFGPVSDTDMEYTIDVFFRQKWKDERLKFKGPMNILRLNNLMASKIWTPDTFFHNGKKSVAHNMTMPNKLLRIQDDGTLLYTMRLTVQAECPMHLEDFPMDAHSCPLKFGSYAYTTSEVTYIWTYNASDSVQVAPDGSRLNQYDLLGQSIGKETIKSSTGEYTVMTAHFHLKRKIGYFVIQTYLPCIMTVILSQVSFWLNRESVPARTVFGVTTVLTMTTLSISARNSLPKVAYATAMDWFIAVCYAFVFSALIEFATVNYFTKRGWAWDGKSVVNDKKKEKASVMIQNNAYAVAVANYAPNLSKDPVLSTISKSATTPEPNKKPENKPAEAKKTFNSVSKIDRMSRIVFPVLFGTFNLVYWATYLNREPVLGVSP

Experiment [2] deals with T2, Gamma-aminobutyric acid receptor subunit alpha-3 (Homo sapiens, UniProt P34903).
T2 sequence (P34903 whole entry): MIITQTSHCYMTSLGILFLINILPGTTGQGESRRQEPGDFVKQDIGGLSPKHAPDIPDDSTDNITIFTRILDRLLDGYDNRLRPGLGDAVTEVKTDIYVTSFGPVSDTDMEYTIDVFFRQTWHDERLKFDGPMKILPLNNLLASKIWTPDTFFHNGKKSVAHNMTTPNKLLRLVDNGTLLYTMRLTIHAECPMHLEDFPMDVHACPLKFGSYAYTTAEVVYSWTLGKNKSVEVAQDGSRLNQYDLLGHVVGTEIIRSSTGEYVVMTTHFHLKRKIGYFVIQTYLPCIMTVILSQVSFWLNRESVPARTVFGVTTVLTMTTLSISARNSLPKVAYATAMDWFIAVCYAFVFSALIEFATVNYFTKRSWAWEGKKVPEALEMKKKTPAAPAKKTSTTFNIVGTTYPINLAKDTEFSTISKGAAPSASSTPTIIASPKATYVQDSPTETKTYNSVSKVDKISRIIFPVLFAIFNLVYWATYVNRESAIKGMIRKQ

Experiment [3] deals with T3, Gamma-aminobutyric acid receptor subunit alpha-1 (Homo sapiens, UniProt P14867).
T3 sequence (P14867 whole entry): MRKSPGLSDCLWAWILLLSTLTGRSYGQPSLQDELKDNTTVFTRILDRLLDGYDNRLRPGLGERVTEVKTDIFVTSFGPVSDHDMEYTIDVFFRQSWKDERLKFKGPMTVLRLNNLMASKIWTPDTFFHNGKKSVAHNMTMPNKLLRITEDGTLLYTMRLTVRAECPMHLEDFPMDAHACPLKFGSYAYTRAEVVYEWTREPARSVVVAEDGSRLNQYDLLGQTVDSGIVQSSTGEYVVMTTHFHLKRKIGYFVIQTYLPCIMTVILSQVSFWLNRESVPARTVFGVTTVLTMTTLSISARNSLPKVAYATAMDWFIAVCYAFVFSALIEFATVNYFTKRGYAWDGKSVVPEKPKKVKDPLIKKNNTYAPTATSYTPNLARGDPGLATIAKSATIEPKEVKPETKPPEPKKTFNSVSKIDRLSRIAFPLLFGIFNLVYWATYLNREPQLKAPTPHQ

Turning to `Cc1nnc2ccc(-c3cccc(C(F)(F)F)c3)nn12`, the Ki in experiment [1] is 2000 nM and 1740 nM; in experiment [2] it was 1790 nM and 1620 nM; in experiment [3], 405 nM and 108 nM.

For the compound `COC(=O)c1cc2c(cn1)[nH]c1ccccc12`, the Ki in experiment [1] is 2.9 nM; in experiment [2], 4.1 nM; in experiment [3] it was 0.78 nM.

For `O=C1CN=C(c2ccccc2Cl)c2cc([N+](=O)[O-])ccc2N1` [5-(2-chlorophenyl)-7-nitro-1,3-dihydro-2H-1,4-benzodiazepin-2-one], the results for the Ki in experiment [1], in experiment [2] and in experiment [3] were 1.7 nM, 2 nM and 1.27 nM, respectively.

As to `O=C1CN=C(c2ccccc2F)c2cc(Cl)ccc2N1CC(F)(F)F` [NSC_93250], the Ki turned out to be 236 nM in experiment [1] and 205 nM in experiment [2].

Consider `CCc1c(C(=O)OC)ncc2[nH]c3cc(OC)c(OC)cc3c12` [NSC_104999], for which the Ki in experiment [1] was found to be 14.4 nM; in experiment [2], 10.6 nM; in experiment [3], 5.3 nM.
